Assay results taken from patent US5554728A, “Lipid conjugates of therapeutic peptides and protease inhibitors” (priority 1991, dated 1996).
Where two headings read alike, the source gives them in different places. Non-standard residues stand in square brackets, D forms with d. Residues, ends and D or L forms follow the SMILES beside them. *: point of attachment. d1Nal = N[C@H](Cc1cccc2ccccc12)C(=O)O; d2Nal = N[C@H](Cc1ccc2ccccc2c1)C(=O)O; Isobutyloxycarbonyl = CC(C)COC(=O)*; Hica(2S) = CC(C)C[C@H](O)C(=O)O; Pip = O=C(O)[C@@H]1CCCCN1

Test system: HIV
Assay type: cell-based
Description: Assay For The Reduction of HIV Syncytia Formed In HT4-6C Cells
The syncytia reduction assay as described by Larder, B. et al., science 243:1731-1734(1989) was used to measure the antiviral effect of protease inhibitor. A Hela cell line, HT4-6C, expressing the human CD4 receptor on its surface was trypsinized with 0.25% trypsin for 5 min. Cells were centrifuged to remove the residual trypsin, and the cell pellet was resuspended in DMEM with 10% FCS. HeLa cells were plated in 96 well plate (1×10^5 cells/well) overnight. Cell cultures were infected with HIV (approx. 100 PFU/well) for one hour. The […] were then prepared in stock solutions, and were then two fold diluted in 2% DMEM with 0.5% methylcellulose. 100 μl of each diluted antiviral agent is added into each well of HIV infected cells. The treated cell cultures were incubated in 37° C. CO2 incubator for 24 hours. Plates of HIV-infected cell cultures were fixed with methanol and stained with 1% crystal violet for 10 min., the dye is rinsed off with tap water. Each plate is dried and syncytia were counted. The antiviral effect of protease inhibitor is calculated by 50% syncytia reduction.

[1] = antiviral effect calculated by 50% syncytia reduction, HIV-infected HT4-6C (HeLa, human CD4) cells, 24 hours incubation, read-out: IC50

| SMILES | IC50 (24 h) [nM] | IC50 [1] [nM] |
| --- | --- | --- |
| COC(=O)[C@@H]1CCCCN1C(=O)[C@@H](Cc1ccc2ccccc2c1)NC(=O)[C@H](C)NC(=O)[C@H](C)NC(C)=O [EXAMPLE 27-30, Ac-Ala-Ala-(D-b-Nal)-Pip-OMe] (Ac-AA[d2Nal][Pip]-OMe) | > 100000 |  |
| CC(C)C(NC(=O)OC(C)(C)C)C(=O)NC(Cc1ccccc1)C(=O)OCC(O)C(O)COC(=O)C(Cc1ccccc1)NC(=O)C(NC(=O)OC(C)(C)C)C(C)C (stereo not drawn) [EXAMPLE 24, (Boc-Val-Phe-O--CH2 --CHOH)2] |  | 1000 |
| CC(C)COC(=O)N[C@H](Cc1ccccc1)C(=O)N[C@H](Cc1cccc2ccccc12)C(=O)N1CCCC[C@H]1C(=O)O[C@@H](CC(C)C)C(=O)N[C@H](C(N)=O)C(C)C [EXAMPLE 27-40, i-Boc-(D-Phe)-(D-a-Nal)-Pip-(a-(OH)-Leu)-Val-NH2] (Isobutyloxycarbonyl-[dF][d1Nal][Pip][Hica(2S)]V-NH2) | 10000 |  |
| CC(C)(C)OC(=O)NC(CO)C(=O)NC(Cc1ccccc1)C(=O)OCC(O)C(O)COC(=O)C(Cc1ccccc1)NC(=O)C(CO)NC(=O)OC(C)(C)C (stereo not drawn) [EXAMPLE 25, (Boc-Ser-Phe-O--CH2 --CHOH)2] |  | 3000 |
